Test results from ChEMBL document CHEMBL3792379, “Synthesis and biological evaluation of aryloxyacetamide derivatives as neuroprotective agents” (2016).
The source made the active and inactive calls. No cut-off for these calls is given here.

How the values were obtained:
[1] = tested on: PC-12; test: (§1) Neuroprotective activity against glutamate-induced cell death in rat PC12 cells assessed as cell viability at 0.1 uM after 24 hrs by MTT assay; type: functional
[2] = tested on: PC-12; test: (§2) Neuroprotective activity against glutamate-induced cell death in rat PC12 cells assessed as cell viability at 1 uM after 24 hrs by MTT assay; type: functional
[3] = tested on: PC-12; test: (§3) Neuroprotective activity against glutamate-induced cell death in rat PC12 cells assessed as cell viability at 10 uM after 24 hrs by MTT assay; type: functional
[4] = tested on: PC-12; test: Neuroprotective activity against glutamate-induced apoptosis in rat PC12 cells assessed as decrease in caspase-3 level after 24 hrs by western blot analysis; type: functional, cell-based
[5] = tested on: PC-12; test: Neuroprotective activity against glutamate-induced apoptosis in rat PC12 cells at 1 uM after 24 hrs by hoechst 33342 and propidium iodide double staining based fluorescence analysis (reference value: 43.97 +/- 2.69%); type: functional
[6] = as §1; type: functional; conditions: PC-12, 24 h, read-out: Activity
[7] = as §2; type: functional; conditions: PC-12, 24 h, read-out: Activity
[8] = tested on: PC-12; test: Neuroprotective activity against glutamate-induced apoptosis in rat PC12 cells after 24 hrs by hoechst 33342 and propidium iodide double staining based fluorescence analysis; type: functional, cell-based
[9] = tested on: PC-12; test: Neuroprotective activity against glutamate-induced apoptosis in rat PC12 cells assessed as decrease in procaspase-3 level after 24 hrs by western blot analysis; type: functional, cell-based
[10] = as §3; type: functional; conditions: PC-12, 24 h, read-out: Activity
[11] = tested on: PC-12; test: Neuroprotective activity against glutamate-induced apoptosis in rat PC12 cells at 0.1 uM after 24 hrs by hoechst 33342 and propidium iodide double staining based fluorescence analysis (reference value: 43.97 +/- 2.69%); type: functional
[12] = tested on: PC-12; test: Neuroprotective activity against glutamate-induced cell death in rat PC12 cells assessed as cell viability after 24 hrs by MTT assay; type: functional, cell-based
[13] = tested on: PC-12; test: Neuroprotective activity against glutamate-induced apoptosis in rat PC12 cells at 10 uM after 24 hrs by hoechst 33342 and propidium iodide double staining based fluorescence analysis (reference value: 43.97 +/- 2.69%); type: functional
[14] = Neuroprotective activity against glutamate-induced cell death in rat PC12 cells assessed as cell viability at 90 uM after 24 hrs by MTT assay; type: functional; conditions: PC-12, 24 h, read-out: Activity
[15] = tested on: PC-12; test: Neuroprotective activity against glutamate-induced apoptosis in rat PC12 cells assessed as procaspase-3 level at 0.1 to 10 uM after 24 hrs by western blot analysis; type: functional, cell-based

Compound	viability at 0.1 µM [6] [%]	viability at 1 µM [7] [%]	viability at 10 µM [10] [%]	further results
Cc1ccccc1OCC(=O)N1CCN(C(c2ccc(Br)cc2)c2ccc(Br)cc2)CC1				Activity [1]: inactive; Activity [2]: inactive; Activity [3]: inactive
COC(=O)c1ccccc1CN1CCN(C(=O)COc2ccc3ccccc3c2)CC1	25.6	37.4	49.5	Activity [4]: Dose-dependent effect; Activity [5]: 29.27%; Activity [8]: Dose-dependent effect; Activity [9]: Dose-dependent effect; Activity [11]: 35.67%; Activity [12]: Dose-dependent effect; Activity [13]: 21.81%
COc1ccc(C(c2ccc(OC)cc2)N2CCN(C(=O)COc3ccccc3C)CC2)cc1	2.45	3.75	21.2	
COc1ccc(OCC(=O)N2CCN(C(c3ccc(F)cc3)c3ccc(F)cc3)CC2)cc1	3.1	5.26	80.5	
O=C(COc1ccc(Br)cc1)N1CCN(Cc2ccc(Br)cc2)CC1				Activity [1]: inactive; Activity [2]: inactive; Activity [3]: inactive
Cc1ccc(C(c2ccc(C)cc2)N2CCN(C(=O)COc3ccc(Cl)cc3)CC2)cc1	5.81	9.14	9.2	
O=C(COc1ccc(Cl)cc1)N1CCN(C(c2ccc(Br)cc2)c2ccc(Br)cc2)CC1	4.22	8.01	16.7	
COc1ccc(OCC(=O)N2CCN(C(c3ccc(C)cc3)c3ccc(C)cc3)CC2)cc1	21.7	42.3	47.5	
COc1ccc(C(c2ccc(OC)cc2)N2CCN(C(=O)COc3ccc4ccccc4c3)CC2)cc1	2.55	5.42	25.6	
Cc1ccccc1OCC(=O)N1CCN(Cc2ccc(Br)cc2)CC1	10.2	22.1	20.8	
CCOc1ccccc1CN1CCN(C(=O)COc2ccccc2C)CC1	53.3	11.9	8.52	
Cc1ccc(C(c2ccc(C)cc2)N2CCN(C(=O)COc3ccccc3C)CC2)cc1	3.24	4.24	11.3	
COC(=O)c1ccccc1CN1CCN(C(=O)COc2ccc(C)cc2)CC1				Activity [1]: inactive; Activity [2]: inactive; Activity [3]: inactive
Cc1ccccc1OCC(=O)N1CCN(C(c2ccc(F)cc2)c2ccc(F)cc2)CC1	7.92	8.7	57	
CCOc1ccc(CN2CCN(C(=O)COc3ccccc3C)CC2)cc1	35.3	30.6	28.9	
COC(=O)c1ccccc1CN1CCN(C(=O)COc2ccc(Br)cc2)CC1				Activity [1]: inactive; Activity [2]: inactive; Activity [3]: inactive
COc1ccccc1OCC(=O)N1CCN(C(c2ccc(C)cc2)c2ccc(C)cc2)CC1				Activity [1]: inactive; Activity [2]: inactive; Activity [3]: inactive

Compound	viability at 0.1 µM [6] [%]	viability at 1 µM [7] [%]	viability at 10 µM [10] [%]	further results
COc1ccccc1OCC(=O)N1CCN(C(c2ccc(Br)cc2)c2ccc(Br)cc2)CC1	45.5	12.8	6.67	
COC(=O)c1ccccc1CN1CCN(C(=O)COc2ccccc2C)CC1	6.39	9.55	25.1	
COc1ccc(/C=C/C(=O)N2CCN(C(c3ccc(F)cc3)c3ccc(F)cc3)CC2)cc1	71	49.7	77.8	
COC(=O)c1ccccc1CN1CCN(C(=O)COc2ccc(OC)cc2)CC1				Activity [1]: inactive; Activity [2]: inactive; Activity [3]: inactive
COc1ccc(OCC(=O)N2CCN(C(c3ccc(Br)cc3)c3ccc(Br)cc3)CC2)cc1	3.52	7.06	50.3	
CC1=NN(c2ccccc2)C(=O)C1 [EDARAVONE]				viability at 90 µM [14]: 33%
O=C(COc1ccc2ccccc2c1)N1CCN(C(c2ccc(F)cc2)c2ccc(F)cc2)CC1				Activity [1]: inactive; Activity [2]: inactive; Activity [3]: inactive
COC(=O)c1ccccc1CN1CCN(C(=O)COc2ccc(Cl)cc2)CC1	39.9	5.15	6.36	
COC(=O)c1ccccc1CN1CCN(C(=O)COc2ccccc2OC)CC1	23.2	32.8	23.1	
COc1ccccc1OCC(=O)N1CCN(C(c2ccc(F)cc2)c2ccc(F)cc2)CC1	32	45.9	79.7	Activity [4]: Dose-dependent effect; Activity [5]: 31.04%; Activity [8]: Dose-dependent effect; Activity [9]: Dose-dependent effect; Activity [11]: 42.28%; Activity [12]: Dose-dependent effect; Activity [13]: 19.18%
O=C(COc1ccc2ccccc2c1)N1CCN(C(c2ccc(Br)cc2)c2ccc(Br)cc2)CC1	4.06	7.87	30.2	
O=C(COc1ccc(Br)cc1)N1CCN(C(c2ccc(Br)cc2)c2ccc(Br)cc2)CC1				Activity [1]: inactive; Activity [2]: inactive; Activity [3]: inactive
COc1ccccc1OCC(=O)N1CCN(Cc2ccc(Br)cc2)CC1	38	41	20.8	
COc1ccc(OCC(=O)N2CCN(C(c3ccc(OC)cc3)c3ccc(OC)cc3)CC2)cc1	59.4	80.7	56.7	
CCOc1ccccc1CN1CCN(C(=O)COc2ccc3ccccc3c2)CC1	29.8	45.7	59.6	Activity [15]: inactive; Activity [4]: Dose-dependent effect; Activity [5]: 23.73%; Activity [8]: Dose-dependent effect; Activity [11]: 35.09%; Activity [12]: Dose-dependent effect; Activity [13]: 16.21%
O=C(COc1ccc(Br)cc1)N1CCN(C(c2ccc(F)cc2)c2ccc(F)cc2)CC1	26.8	47.6	77.1	Activity [15]: inactive; Activity [4]: Dose-dependent effect; Activity [5]: 32.18%; Activity [8]: Dose-dependent effect; Activity [11]: 41.83%; Activity [12]: Dose-dependent effect; Activity [13]: 24.65%
Cc1ccc(C(c2ccc(C)cc2)N2CCN(C(=O)COc3ccc4ccccc4c3)CC2)cc1	4.75	5.63	10.3	
